The target of the experiment is T1, 15-PGDH/HPGD (Homo sapiens, UniProt P15428).
T1 construct: purchased R&D System 5660-DH
T1 sequence (P15428 1-266): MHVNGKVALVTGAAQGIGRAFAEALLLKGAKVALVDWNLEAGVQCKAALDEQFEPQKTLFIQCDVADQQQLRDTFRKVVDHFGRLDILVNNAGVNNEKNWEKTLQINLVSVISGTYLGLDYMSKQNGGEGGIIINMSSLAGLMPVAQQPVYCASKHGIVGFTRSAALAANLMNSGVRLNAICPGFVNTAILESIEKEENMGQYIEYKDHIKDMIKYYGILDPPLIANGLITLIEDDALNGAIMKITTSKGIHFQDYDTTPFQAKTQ
The experiment is described as follows: hPGDH inhibitor screening biochemical assay. To be noted: 10 nM enzyme, 15 μM PGE2, 0.25 mM NAD, fluorescence ex/em 340/485 nm. How it is done:
A hydroxyprostaglandin dehydrogenase inhibition screening biochemical assay can be performed to assess the synthesized inhibitors provided herein. Provided herein is an exemplary biochemical assay for hPGDH inhibitor screening.
The in vitro biochemical assay can be performed in white, 384 plates in total 20 μl reaction volume consisting of 10 nM of 15-PGDH/HPGD (R&D System #5660-DH), 15 μM Prostaglandin E2 (Sigma, C8 t #P5640-10 MG) and 0.25 mM β-Nicotinamide adenine dinucleotide sodium salt (Sigma, C8 t #N0632-5G) made in reaction buffer (50 mM Tris-HCl, pH 7.5, 0.01% Tween 20) at 10-point dose response curve for test/tool compounds. Briefly, 5 μl (4×) of compounds solution and 5 μl (final concentration, 10 nM) of enzyme solution is added to white 384 well plates and incubated for 10 mins at 37° C. 5 μl (4×) of […] and 5 μl (4×) of β-Nicotinamide adenine dinucleotide sodium salt is added to the wells and incubated for 10 mins at room temperature. Fluorescence is recorded at ex/em=340 nm/485 nm. The percentage (%) inhibition of enzyme activity was determined relative to positive control (1% DMSO) and IC50 was calculated using GraphPad prism software (four parameter-variable slope equation).
The term IC50 denotes the concentration needed to halve the response being measured. A higher IC50 goes with lower potency. `CC1CCCN(C(=O)c2cnc3c(ccn3-c3ccc(C#N)cc3)c2)C1` (stereo in doubt) [Compound B-10, (R)-4-(5-(3-methylpiperidine-1-carbonyl)-1H-pyrrolo[2,3-b1 pyridin-1-yl)benzonitrile] came in with a half-maximal inhibitory concentration (IC50) of under 0.1 µM.
Regarding `CCC1CCCN(C(=O)c2cnc3c(ccn3-c3cncc(NC(=O)OC)c3)c2)C1` (stereo in doubt) [Compound B-69, methyl(R)-(5-(5-(3-ethylpiperidine-1-carbonyl)-1H-pyrrolo[2,3-b]pyridin-1-yl)pyridin-3-yl)carbamate], the IC50 is under 0.1 µM.
In turn, `O=C(c1cnc2c(ccn2-c2cncc(-c3n[nH]c(C4CC4)n3)c2)c1)N1CCC(F)(F)CC1` [Compound B-1, (1-(5-(5-cyclopropyl-1H-1,2,4-triazol-3-yl)pyridin-3-yl)-1H-pyrrolo [2,3-b]pyridin-5-yl)(4,4-difluoropiperidin-1-yl)methanone] showed an IC50 of under 0.1 µM.
The compound `O=C(c1cnc2c(ccn2-c2ccc(N3CCNC3=O)nc2)c1)N1CCC(F)(F)CC1` [Compound B-2] returned a half-maximal inhibitory concentration (IC50) of under 0.1 µM.
For `C[C@@H]1CCCN(C(=O)c2cnc3c(ccn3-c3ccc(C(=O)O)cc3)c2)C1` [Compound B-3], the IC50 was under 0.1 µM.
In the case of `C[C@H]1CCCN(C(=O)c2cnc3c(ccn3-c3ccc(C(=O)O)cc3)c2)C1` [Compound B-4] it was under 0.1 µM; in that of `C[C@@H]1CCN(C(=O)c2cnc3c(ccn3-c3ccc(C(=O)O)cc3)c2)C1` [Compound B-5], under 0.1 µM.
In the case of `O=C(O)c1ccc(-n2ccc3cc(C(=O)N4CC[C@@H](F)C4)cnc32)cc1` [Compound B-6] it was under 0.1 µM.
For `C[C@H]1CCN(C(=O)c2cnc3c(ccn3-c3ccc(C(=O)O)cc3)c2)C1` [Compound B-7], the half-maximal inhibitory concentration (IC50) is under 0.1 µM.
As for `O=C(O)c1ccc(-n2ccc3cc(C(=O)N4CC[C@H](F)C4)cnc32)cc1` [Compound B-8], the half-inhibitory concentration (IC50) was under 0.1 µM.
With `C[C@@H]1CCCN(C(=O)c2cnc3c(ccn3-c3ccc(C#N)cc3)c2)C1` [Compound B-9, (R)-4-(5-(3-methylpiperidine-1-carbonyl)-1H-pyrrolo12,3-b1 pyridin-1-yl)benzonitrile], the concentration for half-maximal inhibition (IC50) is under 0.1 µM.
`Nc1nc(-c2cncc(-n3ccc4cc(C(=O)N5CCC(F)(F)CC5)cnc43)c2)no1` [Compound B-11, (1-(5-(5-amino-1,2,4-oxadiazol-3-yl)pyridin-3-yl)-1H-pyrrolo [2,3-b]pyridin-5-yl)(4,4-difluoropiperidin-1-yl)methanone] returned a half-maximal inhibitory concentration (IC50) of under 0.1 µM.
In the case of `Nc1nc2ccc(-n3ccc4cc(C(=O)N5CCC(F)(F)CC5)cnc43)cn2n1` [Compound B-12] it was under 0.1 µM; in that of `O=C(c1cnc2c(ccn2-c2ccc(N3CCN(c4ccc(-n5ccc6cc(C(=O)N7CCC(F)(F)CC7)cnc65)cn4)C3=O)nc2)c1)N1CCC(F)(F)CC1` [Compound B-13], 0.1 to 1 µM.
On to `Cc1cnc(-c2cncc(-n3ccc4cc(C(=O)N5CCC(F)(F)CC5)cnc43)c2)[nH]1` [Compound B-14], for which the IC50 was under 0.1 µM.
As for `Cc1nc(-c2cncc(-n3ccc4cc(C(=O)N5CCC(F)(F)CC5)cnc43)c2)c[nH]1` [Compound B-15], the concentration for half-maximal inhibition (IC50) is under 0.1 µM.
In the case of `Cc1nc(-c2ccc(-n3ccc4cc(C(=O)N5CCC(F)(F)CC5)cnc43)cn2)c[nH]1` [Compound B-16, (4,4-difluoropiperidin-1-yl)(1-(6-(2-methyl-1H-imidazol-4-yl)pyridin-3-yl)-1H-pyrrolo[2,3-b]pyridin-5-yl)methanone] it was under 0.1 µM; in that of `Cc1cnc(-c2ccc(-n3ccc4cc(C(=O)N5CCC(F)(F)CC5)cnc43)cn2)[nH]1` [Compound B-17], under 0.1 µM; in that of `Cc1nn[nH]c1-c1cncc(-n2ccc3cc(C(=O)N4CCC(F)(F)CC4)cnc32)c1` [Compound B-18, (4,4-difluoropiperidin-1-yl) (1-(5-(4-methyl-1H-1,2,3-triazol-5-yl)pyridin-3-yl)-1H-pyrrolo[2,3-b]pyridin-5-yl)methanone], under 0.1 µM.
Regarding `Cc1[nH]nnc1-c1ccc(-n2ccc3cc(C(=O)N4CCC(F)(F)CC4)cnc32)cn1` [Compound B-19, (4,4-difluoropiperidin-1-yl)(1-(6-(5-methyl-1H-1,2,3-triazol-4-yl)pyridin-3-yl)-1H-pyrrolo[2,3-b]pyridin-5-yl)methanone], the half-inhibitory concentration (IC50) is under 0.1 µM.
Take `CC(C)(C)Nc1nc(-c2cncc(-n3ccc4cc(C(=O)N5CCC(F)(F)CC5)cnc43)c2)no1` [Compound B-20, (1-(5-(5-(tert-butylamino)-1,2,4-oxadiazol-3-yl)pyridin-3-yl)-1H-pyrrolo[2,3-b]pyridin-5-yl)(4,4-difluoropiperidin-1-yl)methanone]: the IC50 is under 0.1 µM.
In the case of `Cc1nnc(-c2ccc(-n3ccc4cc(C(=O)N5CCC(F)(F)CC5)cnc43)cn2)[nH]1` [Compound B-21, (4,4-difluoropiperidin-1-yl)(1-(6-(5-methyl-4H-1,2,4-triazol-3-yl)pyridin-3-yl)-1H-pyrrolo[2,3-b]pyridin-5-yl)methanone] it was under 0.1 µM.
The figure for `Cc1nnc(-c2cncc(-n3ccc4cc(C(=O)N5CCC(F)(F)CC5)cnc43)c2)[nH]1` [Compound B-22, (4,4-difluoropiperidin-1-yl) (1-(5-(5-methyl-4H-1,2,4-triazol-3-yl)pyridin-3-yl)-1H-pyrrolo[2,3-b]pyridine-5-yl) methanone] is under 0.1 µM; for `COc1ccc(Cn2cc(-c3cncc(-n4ccc5cc(C(=O)N6CCC(F)(F)CC6)cnc54)c3)nc2C)cc1` [Compound B-23, (4,4-difluoropiperidin-1-yl)(1-(5-(1-(4-methoxybenzyl)-2-methyl-1H-imidazol-4-yl)pyridin-3-yl)-1H-pyrrolo [2,3-b]pyridin-5-yl)methanone] it is under 0.1 µM.
`COc1ccc(Cn2cc(-c3ccc(-n4ccc5cc(C(=O)N6CCC(F)(F)CC6)cnc54)cn3)nc2C)cc1` [Compound B-24, (4,4-difluoropiperidin-1-yl) (1-(6-(1-(4-methozybenzyl)-2-methyl-1H-imidazol-4-yl)pyridin-3-yl)-1H-pyrrolo[2,3-b]pyridin-5-yl)methanone] registered an IC50 of under 0.1 µM.
In turn, `O=C(c1cnc2c(ccn2-c2ccc(-c3nnc[nH]3)cc2)c1)N1CCC(F)(F)CC1` [Compound B-26, (1-(4-(1H-1,2,4-triazol-5-yl)phenyl)-1H-pyrrolo[2,3-b]pyridin-5-yl)(4,4-difluoropiperidin-1-yl)methanone] yielded an IC50 of under 0.1 µM.
In turn, `O=C(O)c1ccc(-n2ccc3cc(C(=O)N4CCC(F)(F)CC4)cnc32)cc1F` [Compound B-27, 4-(5-(4,4-difluoropiperidine-1-carbonyl)-1H-pyrrolo[2,3-b]pyridin-1-yl)-2-fluorobenzoic acid] displayed a half-inhibitory concentration (IC50) of under 0.1 µM.
For `C[C@H]1CCCN(C(=O)c2cnc3c(ccn3-c3ccc(-c4nnc[nH]4)nc3)c2)C1` [Compound B-28], the IC50 was under 0.1 µM.
The figure for `C[C@H]1CCCN(C(=O)c2cnc3c(ccn3-c3ccc4nc(N)nn4c3)c2)C1` [Compound B-29] is under 0.1 µM; for `C[C@H]1CCCN(C(=O)c2cnc3c(ccn3-c3ccc(N4CCNC4=O)nc3)c2)C1` [Compound B-30] it is under 0.1 µM; for `C[C@H]1CCCN(C(=O)c2cnc3c(ccn3-c3ccc(-c4nc[nH]n4)cc3)c2)C1` [Compound B-33, (S)-(1-(4-(1H-1,2,4-triazol-3-yl)phenyl)-1H-pyrrolo[2,3-b]pyridin-5-yl)(3-methylpiperidin-1-yl)methanone] it is under 0.1 µM.

(Values after patent US20240294519A1, “PYRROLO[2,3-b]PYRIDINE PGDH INHIBITORS AND METHODS OF MAKING AND USING” (EPIRIUM BIO INC., priority 2021, published 2024).)
